From patent US20260224486A1, “DIANHYDROHEXITOL BASED IONIZABLE LIPIDS FOR NUCLEIC ACID DELIVERY” (SANOFI PASTEUR INC., priority 2023, published 2026)

Columns and labels:
BALB/cJ mice = experiment: Delivery of hEPO mRNA by intramuscular administration of LNPs; serum hEPO by ELISA; assay type: in vivo, Mouse; details: for hEPO 6 Hr (ng/mL) Mean: Table 3, isomannide-derived lipids
Procedure: In summary, lipid screening studies were conducted with female BALB/cJ mice 6-8 weeks of age. Mice were dosed with 0.1 μg in 30 μL of LNPs by a single intramuscular (IM) injection into the gastrocnemius leg muscle. Blood samples were taken 6 and 24 hours post injection and hEPO levels were measured in the blood serum of the mice using an ELISA assay according to the manufacture's protocol.
Treatment Regimen: On Day 1, animals from Groups 1-33 were dosed via intramuscular injection while under light isoflurane anesthesia according to the study design table above. Animals in Groups 1-33 were injected with EPO mRNA LNPs in the right leg only. Groups 1 and 17 animals received MC3 control.
Interim Sample Collections: Interim whole blood (^~50 μL) was collected by tail snip or saphenous vein at 6 and 24 hours post dose administration (±5%). Blood samples were collected into serum separator tubes, allowed to clot at room temperature for at least 10 minutes, centrifuged at ambient temperature at minimum 1000 g for 10 minutes and the serum was extracted. All serum samples were stored at nominally −70° C. until analysis hEPO by the Testing Facility. The results of the EPO analysis were included in the Data Submission.
Terminal Blood Collections: Whole blood was collected via cardiac puncture into serum separator tube, allowed to clot at room temperature for at least 10 minutes, centrifuged at ambient temperature at minimum 1000 g for 10 minutes and the serum was extracted. Serum samples were stored at nominally −70° C. until analyzed for hEPO by the Test Facility.
ELISA Assay: Human erythropoietin (hEPO) levels in sera samples were determined by ELISA kit (R&D systems, Cat #DEP-00) according to the manufactory instruction and the results were included in the Data Submission. The “shaker” protocol was used. The serum samples were diluted between 1:40 and 1:100.

[1] = Lipid nanoparticle size and polydispersity index by dynamic light scattering (Malvern Zetasizer); assay type: physicochemical; details: hEPO mRNA LNP, Process A, Cationic Lipid:DMG-PEG2000:Cholesterol:DOPE 40:1.5:28.5:30 mol %, N/P 4
Source text: The lipid nanoparticles in the examples of the present invention were formulated using Process A of WO 2018/089801 (see, e.g., Example 1 and FIG. 1 of WO 2018/089801). Process A (“A”) relates to a conventional method of encapsulating mRNA by mixing mRNA with a mixture of lipids, without first pre-forming the lipids into lipid nanoparticles. In an exemplary process, an ethanolic solution of a mixture of lipids (cationic lipid, phosphatidylethanolamine, cholesterol, and polyethylene glycol-lipid) at a fixed lipid to mRNA ratio were combined with an aqueous buffered solution of target mRNA at an acidic pH under controlled conditions to yield a suspension of uniform LNPs. After ultrafiltration and diafiltration into a suitable diluent system, the resulting nanoparticle suspensions were diluted to final concentration, filtered, and stored frozen at −80° C. until use.
(§1) Lipid nanoparticle formulations of Table 1 were prepared by Process A. All of the lipid nanoparticle formulations comprised hEPO mRNA and the different lipids (Cationic Lipid: DMG-PEG2000: Cholesterol: DOPE) in mol % ratios of 40:1.5:28.5:30 (Cationic Lipid: DMG-PEG2000: Cholesterol: DOPE).
The Polydispersity Index (Pdl) of lipid nanoparticles can be determined by diluting the formulation in 10% trehalose at about 0.1 mg/ml mRNA concentration and then measuring the size on Malvern zetasizer. The lipid nanoparticle size can be obtained with Malvern Zetasizer Nano-ZS.
Dynamic light scattering (DLS) measurements were performed using a Malvern Instruments Zetasizer with a backscattering detector angle of 173° and a 4-mW, 633-nm He—Ne laser (Worcestershire, UK). The samples were analyzed by diluting in 10% Trehalose and measuring the size and Poly dispersity Index (PDI) in an optical grade polystyrene cuvette.

[2] = mRNA encapsulation efficiency of lipid nanoparticles (RiboGreen assay); assay type: physicochemical; details: hEPO mRNA LNP, Process A, Cationic Lipid:DMG-PEG2000:Cholesterol:DOPE 40:1.5:28.5:30 mol %, N/P 4
Source text: In embodiments, the lipid nanoparticle encapsulates a nucleic acid, optionally an mRNA encoding a peptide or protein. In embodiments, the lipid nanoparticle encapsulates an mRNA encoding a peptide or protein, optionally for use in a vaccine. In embodiments, the peptide is an antigen. As used herein, the phrase “encapsulation percentage” refers to the fraction of therapeutic agent (e.g. mRNA) that is effectively encapsulated within a liposomal-based vehicle (e.g. a lipid nanoparticle) relative to the initial fraction of therapeutic agent present in the lipid phase. In embodiments, the lipid nanoparticles have an encapsulation percentage for mRNA of at least 50%. In embodiments, the lipid nanoparticles have an encapsulation percentage for mRNA of at least 55%. In embodiments, the lipid nanoparticles have an encapsulation percentage for mRNA of at least 60%. In embodiments, the lipid nanoparticles have an encapsulation percentage for mRNA of at least 65%. In embodiments, the lipid nanoparticles have an encapsulation percentage for mRNA of at least 70%. In embodiments, the lipid nanoparticles have an encapsulation percentage for mRNA of at least 75%. In embodiments, the lipid nanoparticles have an encapsulation percentage for mRNA of at least 80%. In embodiments, the lipid nanoparticles have an encapsulation percentage for mRNA of at least 85%. In embodiments, the lipid nanoparticles have an encapsulation percentage for mRNA of at least 90%. In embodiments, the lipid nanoparticles have an encapsulation percentage for mRNA of at least 95%. In embodiments, the encapsulation percentage is calculated by performing the Ribogreen assay (Invitrogen) with and without the presence of 0.1% Triton-X 100.
as §1
The RiboGreen Assay is a fluorescence-based method for the determination of mRNA concentration (Total and Free) and % encapsulation using Quant-iT™ RiboGreen® RNA reagent in mRNA containing lipid nanoparticles.
• To each of the standards (Blank, mRNA-1, mRNA-2. mRNA-3, mRNA-4, mRNA-5) and Samples (free mRNA and total mRNA), add 1.0 mL of 200-fold Ribogreen Reagent Solution and gently mix by inversion. This is a 2× Dilution. • Add 200 μL of each standard and sample in triplicate using the reverse pipetting technique in a 96-well Costar Black with Clear Background Plate. Ensure no bubbles are present in the plate before the fluorescence reading. • Read the fluorescence signal using the below instrument parameters: • Read Type: Fluorescence, Bottom Read • Excitation: 485 nm; Cut-off: 515 nm; Emission: 530 nm • Plate Type: 96-well Costar Black with Clear Background
The average fluorescence from each calibration standard is plotted against the concentration to generate a linear calibration curve using the MS Excel software. The coefficient of determination (R^2) of calibration curve must be R^2>0.99.
[formula] • Where, • Y=average fluorescence value • m: slope • x: concentration (pg/mL) • c: y-intercept • Using the linear equation, calculate the concentration of free and total mRNA concentration in the test sample by replacing the y value in the equation with the average fluorescence value of each respective sample • Once the concentration is determined, the actual concentration in the sample can be back-calculated by multiplying the concentration in the test sample with the dilution factor (DF) as follows:
[formula] [formula] • Concentration of encapsulated mRNA can be determined by subtracting the concentration of free mRNA from the total mRNA. • % Encapsulation can then be calculated by taking the ratio of encapsulated mRNA over total mRNA and multiplying the result with 100.

[3] = Table 2, isosorbide-derived lipids, mouse serum 6 hours post single IM injection of 0.1 μg hEPO mRNA LNP
[4] = mouse serum 6 hours post single IM injection of 0.1 μg hEPO mRNA LNP

Structure (SMILES)	hEPO 6 Hr (ng/ml) Mean (BALB/cJ mice; [3])	Polydispersity Index (PDI) [1]	Size (nm) [1]	Encapsulation efficiency (EE) % [2]	hEPO 6 Hr (ng/ml) Mean (BALB/cJ mice; Table 4, further lipids, mouse serum 6 hours post IM injection of hEPO mRNA LNP as in example 3)	hEPO 6 Hr (ng/mL) Mean (BALB/cJ mice; [4])
CCCCCCCCC(O)CN(CCCCC(=O)O[C@H]1CO[C@H]2[C@@H]1OC[C@H]2OC(=O)CCCCN(CC(O)CCCCCCCC)CC(O)CCCCCCCC)CC(O)CCCCCCCC (stereo partly shown) [Compound 21]	31.6 ng/mL	0.139	78 nm	96%		
CCCCCCCCCCC(O)CN(CCCC(=O)O[C@H]1CO[C@H]2[C@@H]1OC[C@H]2OC(=O)CCCN(CC(O)CCCCCCCC)CC(O)CCCCCCCC)CC(O)CCCCCCCCCC (stereo partly shown) [Compound 22]	34.1 ng/mL	0.1	75 nm	91%		
CCCCCCCCCCC(O)CN(CCCCC(=O)O[C@@H]1CO[C@H]2[C@@H]1OC[C@@H]2OC(=O)CCCN(CC(O)CCCCCCCCCC)CC(O)CCCCCCCCCC)CC(O)CCCCCCCCCC (stereo partly shown) [Compound 25]	42.7 ng/mL	0.13	81 nm	96%		
CCCCCCCCCCCCC(O)CN(CCCCC(=O)O[C@H]1CO[C@H]2[C@@H]1OC[C@H]2OC(=O)CCCCN(CC(O)CCCCCCCCCCCC)CC(O)CCCCCCCCCCCC)CC(O)CCCCCCCCCCCC (stereo partly shown) [Compound 28]	40.2 ng/mL	0.103	91 nm	94%		
CCCCCCCCCCC(O)CN(CCCC(=O)O[C@H]1CO[C@H]2[C@@H]1OC[C@H]2OC(=O)CCCN(CC(O)CCCCCCCCCC)CC(O)CCCCCCCCCC)CC(O)CCCCCCCCCC (stereo partly shown) [Compound 29]	38.4 ng/mL	0.13	126 nm	96%		
CCCCCCCCCCCCCCCCC(O)CN(CCCC(=O)O[C@H]1CO[C@H]2[C@@H]1OC[C@H]2OC(=O)CCCN(CC(O)CCCCCCCCCCCCCCCC)CC(O)CCCCCCCCCCCCCCCC)CC(O)CCCCCCCCCCCCCCCC (stereo partly shown) [Compound 30]	25.2 ng/mL	0.16	106 nm	94%		
CCCCCCCCCCCCCCCCC(O)CN(CCCCC(=O)O[C@@H]1CO[C@H]2[C@@H]1OC[C@H]2OC(=O)CCCCN(CC(O)CCCCCCCCCCCCCCCC)CC(O)CCCCCCCCCCCCCCCC)CC(O)CCCCCCCCCCCCCCCC (stereo partly shown) [Compound 31]	14.1 ng/mL	0.12	98 nm	97%		
CCCCCCCCCCCOC(=O)CCCC(O)CN(CCCC(=O)O[C@H]1CO[C@H]2[C@@H]1OC[C@H]2OC(=O)CCCN(CC(O)CCCCCC(=O)OC(CCCCCCCC)CCCCCCCC)CC(O)CCCC(=O)OCCCCCCCCCCC)CC(O)CCCCCC(=O)OC(CCCCCCCC)CCCCCCCC (stereo partly shown) [Compound 33]	17.6 ng/mL	0.11	109 nm	99%		
CCCCCC/C=C\COC(=O)CCCCCC(O)CN(CCCC(=O)O[C@@H]1CO[C@H]2[C@@H]1OC[C@@H]2SC(=O)CCCN(CC(O)CCCCCCCCCC)CC(O)CCCCCCCCCC)CC(O)CCCCCC(=O)OC/C=C\CCCCCC (stereo partly shown) [Compound 34]	33.8 ng/mL	0.1	84 nm	92%		
CCCCCC/C=C\COC(=O)CCCCCC(O)CN(CCCC(=O)O[C@H]1CO[C@H]2[C@@H]1OC[C@H]2OC(=O)CCCN(CC(O)CCCCCC(=O)OC/C=C\CCCCCC)CC(O)CCCCCC(=O)OC/C=C\CCCCCC)CC(O)CCCCCC(=O)OC/C=C\CCCCCC (stereo partly shown) [Compound 35]	28.5 ng/mL	0.08	92 nm	82%		
CCCCCCCCCCC(O)CN(CCCOC(=O)O[C@@H]1CO[C@H]2[C@@H]1OC[C@H]2OC(=O)OCCCN(CC(O)CCCCCCCCCC)CC(O)CCCCCCCCCC)CC(O)CCCCCCCCCC (stereo partly shown) [Compound 36]		0.2	94 nm	88%	31.7 ng/mL	
CCCCCCCCCCCCC(O)CN(CCCOC(=O)O[C@@H]1CO[C@H]2[C@@H]1OC[C@H]2OC(=O)OCCCN(CC(O)CCCCCCCCCCCC)CC(O)CCCCCCCCCCCC)CC(O)CCCCCCCCCCCC (stereo partly shown) [Compound 37]		0.25	65 nm	95%		27.4 ng/mL
CCCCCCCCCCC(O)CN(CCCCOC(=O)O[C@@H]1CO[C@H]2[C@@H]1OC[C@H]2OC(=O)OCCCCN(CC(O)CCCCCCCCCC)CC(O)CCCCCCCCCC)CC(O)CCCCCCCCCC (stereo partly shown) [Compound 38]		0.12	69 nm	72%		22.6 ng/mL
